Assay results taken from US7550453B2, “2-alkoxy-3,4,5-trihydroxy-alkylamides, preparation thereof, compositions containing them and use thereof” (Aventis Pharma SA, priority 2004, dated 2009).

Test system: Hep-G2 cells
Test: Inhibition of cell proliferation of Hep-G2 cells (intracellular ATP, CellTiterGlo)
Format: cell-based
Conditions: Homo sapiens, HepG2, 72 hours incubation, ATP content, read-out: IC 50 (μM)/HEP G2
Method: The antitumoral activity of products 1 to 10 was determined by measuring the inhibition of cell proliferation of Hep-G2 cells. The cells are subcultured in a cell culture medium at a concentration of 1000 cells per well, and incubated for 4 hours at 37° C. and 5% CO2.
Medium used for the Hep-G2 and HCT-116 cell culture: Dubelcco's modified Eagle's medium/Ham mixture F12 (Gibco); NEAA (10%; nonessential amino acids, Gibco); sodium pyruvate (1%, Gibco); L-glutamine (1%, Gibco); fetal calf serum (5%; PAA).
After 4 hours, the test products dissolved in a DMSO/cell culture medium mixture are added at various concentrations and the resulting mixtures are incubated for 72 hours at 37° C. and 5% CO2. The intracellular ATP content was measured using the CellTiterGlo test reagent (Promega).

CO[C@@H](C(=O)N[C@H]1Cc2ccccc2[C@H]2CCCCN2C1=O)[C@H](O)[C@@H](O)[C@H](O)/C=C/C(C)(C)C [Ex 9, N-((7S,12bR)-6-oxo-1,2,3,4,6,7,8,12b-octa-hydropyrido[2,1-a][2]benzazepin-7-yl)-(E)-(2R,3R,4S,5R)-3,4,5-trihydroxy-2-methoxy-8,8-dimethylnon-6-enamide]
IC50: 3.6 µM

CO[C@@H](C(=O)N[C@H]1CCCCN(Cc2ccc(-c3ccccc3)cc2)C1=O)[C@H](O)[C@@H](O)[C@H](O)C=NOCc1ccccc1 (racemic) [Ex 10, N—[(S)-1-(biphenyl-4-ylmethyl)-2-oxoperhydro-azepin-3-yl](2R,3R,4S,5S)-6-benzyloxyimino-3,4,5-trihydroxy-2-methoxyhexylamide]
IC50: 18.3 µM

CO[C@@H](C(=O)NC1Cc2ccccc2CN(C)C1=O)[C@H](O)[C@@H](O)[C@H](O)/C=C/C(C)(C)C (stereo partly drawn) [Ex 1, N-(2-Methyl-3-oxo-2,3,4,5-tetrahydro-1H-2-benzazepin-4-yl)-(E)-(2R,3R,4S,5R)-3,4,5-trihydroxy-2-methoxy-8,8-dimethylnon-6-enamide]
IC50: 0.17 µM

COC(=O)C1CC(NC(=O)[C@H](OC)[C@H](O)[C@@H](O)[C@H](O)/C=C/C(C)(C)C)C(=O)N1 (stereo partly drawn) [Ex 5, Methyl 5-oxo-4-((E)-(2R,3R,4S,5R)-3,4,5-tri-hydroxy-2-methoxy-8,8-dimethylnon-6-enoylamino)pyrrolidine-2-carboxylate]
IC50: 26.7 µM

CO[C@@H](C(=O)N[C@H]1CCCCN(Cc2ccc(-c3ccccc3)cc2)C1=O)[C@H](O)[C@@H](O)[C@H](O)/C=C/C(C)(C)C [Ex 2, N—[(S)-1-(biphenyl-4-ylmethyl)-2-oxoperhydroazepin-3-yl]-(E)-(2R,3R,4S,5R)-3,4,5-trihydroxy-2-methoxy-8,8-dimethylnon-6-enamide]
IC50: 1.3 µM

CO[C@@H](C(=O)NC1CSCCNC1=O)[C@H](O)[C@@H](O)[C@H](O)/C=C/C(C)(C)C (stereo partly drawn) [Ex 8, N-(5-oxoperhydro-1,4-thiazepin-6-yl)-(E)-(2R,3R,4S,5R)-3,4,5-trihydroxy-2-methoxy-8,8-dimethylnon-6-enamide]
IC50: 0.83 µM

CO[C@@H](C(=O)NC1CN(c2ccccc2)C1=O)[C@H](O)[C@@H](O)[C@H](O)/C=C/C(C)(C)C (stereo partly drawn) [Ex 3, N-(2-Oxo-1-phenylazetidin-3-yl)-(E)-(2R,3R,4S,5R)-3,4,5-trihydroxy-2-methoxy-8,8-dimethylnon-6-enamide]
IC50: 0.48 µM

CO[C@@H](C(=O)NC1CCCNC1=O)[C@H](O)[C@@H](O)[C@H](O)/C=C/C(C)(C)C (stereo partly drawn) [Ex 6, N-(2-oxopiperidin-3-yl)-(E)-(2R,3R,4S,5R)-3,4,5-trihydroxy-2-methoxy-8,8-dimethylnon-6-enamide]
IC50: 1.19 µM

CO[C@@H](C(=O)NC1Cc2ccccc2NC1=O)[C@H](O)[C@@H](O)[C@H](O)/C=C/C(C)(C)C (stereo partly drawn) [Ex 7, N-(2-oxo-1,2,3,4-tetrahydroquinolin-3-yl)-(E)-(2R,3R,4S,5R)-3,4,5-trihydroxy-2-methoxy-8,8-dimethylnon-6-enamide]
IC50: 1.11 µM

CO[C@@H](C(=O)NC1CCNC1=O)[C@H](O)[C@@H](O)[C@H](O)/C=C/C(C)(C)C (stereo partly drawn) [Ex 4, N-(2-oxopyrrolidin-3-yl)-(E)-(2R,3R,4S,5R)-3,4,5-trihydroxy-2-methoxy-8,8-dimethylnon-6-enamide]
IC50: 3.1 µM

CO[C@@H](C(=O)NC1CCCCNC1=O)[C@H](O)[C@@H](O)[C@H](O)/C=C/C(C)C (some centres unmarked) [Bengamide E, reference compound]
IC50: 7 µM
